Reference: patent US7833795B2, “Assessment of cardiovascular risk using isoprostane biomarkers and COX-2 selective inhibitors” (The Trustees of the University of Pennsylvania, priority 2004, dated 2010)

Test system: Male Fisher 344 rats
Experiment: Plasma MDA by GC/NICI-MS
Assay type: in vivo, rat
Settings: for MDA (by GC-M5): plasma
Procedure: Animals and treatment protocol: Male Fisher 344 rats (260-280 g) obtained from Charles River Laboratories (Raleigh, N.C.) were used in all experiments. The animals were housed three to a cage. Autoclaved hardwood bedding was used in solid-bottom polycarbonate cages with filter tops. Animal rooms were maintained at 20-25° C. with 35-70% relative humidity with alternating 12-hour light and dark cycles. The rats had free access to deionized, reverse-osmosis-treated water and received autoclaved NIH 31 rodent chow (Zeigler Bros., Gardners, Pa.) ad libitum. For all experiments, rats were fasted overnight and then administered intraperitoneal injections of carbon tetrachloride in canola oil. Control rats received an equal volume of canola oil. Fasting continued throughout the experiment. Rats were anesthetized with Nembutal (0.1 ml/100 g body weight) and 5 ml blood was removed from the dorsal aorta proximal to its bifurcation into the common iliac arteries.
Indomethacin pretreatment: The indomethacin regimen used has been previously shown to inhibit COX activity in rats by 90% (dose of 5 mg/kg s.c. 24 hours, 12 hours, and 2 hours prior to the injection of CCl4) (Jackson, 1989, J. Pharmacol. Exp. Ther. 250: 9-21). An additional booster dose was injected 8 hours after the last injection of CCl4 for the measurements performed 16 hours after treatment with CCl4.
Carbon tetrachloride (CCL4) treatment: Animals from each of the three dose groups (Control-canola oil, 120 mg/kg CCl4 i.p. and 1200 mg/kg CCl4 i.p.) were investigated at three time points (2, 7, and 16 hours after CCl4 injection). Indomethacin-pretreated rats were also investigated at the same three time points, and the meclofenamic acid-pretreated rats were investigated at one time point (7 hours). Each group consisted of five rats for each analysis, except the meclofenamic acid pretreatment group which consisted of six rats. Animal treatment, sample preparation, assessment of liver histology and serum enzyme activities are described elsewhere (Kadiiska et al., 2000, Free Radic. Biol. Med. 28: 838-845; Jackson, 1989, J. Pharmacol. Exp. Ther. 250: 9-21) and were carried out at NIEHS, Research Triangle Park, N.C.
Plasma sample preparation: Blood (5 ml) was drawn through single draw Vacutainer® needles (21 Gauge) into open Vacutainer® blood collection tubes containing heparin. The tubes were gently inverted 2-3 times for mixing and immediately placed on ice. Blood was centrifuged (2,000 rpm for 10 minutes at 4° C.) no more than 30 minutes after collection, and the plasma was collected, frozen on dry ice and stored at −70° C.
Plasma MDA concentrations were also measured by using gas chromatography/negative ion chemical ionization mass spectroscopy (GC/NICI-MS) as described by Yeo et al. (Yeo et al., 1994, Anal. Biochem. 220: 391-396). The stable isotope internal standard [^2H2] MDA and an antioxidant (2,6-tert-butyl-4-methylphenol) were added to the plasma samples. The samples were then incubated at room temperature in 6.6 mol H2SO4 for 10 minutes to hydrolyze the aldehydes from the proteins. Plasma MDA was converted to a stable pentafluorophenyl hydrazine derivative which was quantified by using the GC-MS in the negative chemical ionization mode. The assay was performed at Children's Hospital Oakland Research Institute, Oakland, Calif.

SMILES: ClC(Cl)(Cl)Cl [CCl4, Carbon tetrachloride]
- increase of plasma MDA (GC/NICI-MS) (7 hours after CCl4): 3 fold
- MDA (by GC-M5) (CCl4 120 mg/kg i.p., 2 h): 0.41 µM
- MDA (by GC-M5) (CCl4 120 mg/kg i.p., 7 h): 0.35 µM
- MDA (by GC-M5) (CCl4 120 mg/kg i.p., 16 h): 0.22 µM
- MDA (by GC-M5) (CCl4 1200 mg/kg i.p., 2 h): 1.35 µM
- MDA (by GC-M5) (CCl4 1200 mg/kg i.p., 7 h): 0.36 µM
- MDA (by GC-M5) (CCl4 1200 mg/kg i.p., 16 h): 0.23 µM
- increase of plasma MDA compared to controls (GC/NICI-MS) (higher dose of CCl4, 2 hours): 12 fold
